In one assay the test system is PC-3 cells. Kind of assay: cells. To be noted: Homo sapiens, PC-3, 48 h, read-out: PC-3 IV (intermediate value). Here is the method:
(§1) Cell viability was evaluated by MTT assay.
(§2) It is necessary for this IV to have a method of comparison for the combination of experiments.
(§3) Human colorectal cancer HT-29 and prostate cancer PC-3 cell lines were obtained from the American Type Culture Collection (ATCC; Manassas, VA, USA) and maintained according to ATCC’s recommendations at 37 °C and 5% CO2 in appropriate medium supplemented with 10% foetal bovine serum, 100 U/mL penicillin G and 100 µg/mL streptomycin. Cells were maintained in the logarithmic growth phase at all times. The media were changed every 2 days and trypsinised with 0.25% trypsin–EDTA. A total of 100 µL of HT-29 cells (7500 cells/well) or PC-3 cells (5000 cells/well) were seeded in 96-well plates and allowed to adhere overnight before drug exposure. After 24 h, the cell culture media were replaced with 100 µL of drug-containing media. […]
(§4) The IV value was first determined for each drug alone in HT-29 and PC-3 cells. […] Both Drug A and Drug B concentrations were variable, and the combined effects of equipotent concentrations (fixed ratio) of the IV values for each drug were evaluated.
(§5) For the MTT protocol, after drug treatment, the cell medium was removed and 100 µL/well of MTT solution (0.5 mg/mL in PBS) was added. […] Absorbance was measured at 570 nm in an automated microplate reader (Tecan Infinite M200, Tecan Group Ltd., Männedorf, Switzerland). […]

Another assay concerns HT-29 cells. Kind of assay: cells. To be noted: Homo sapiens, HT-29, 48 h, read-out: HT-29 IV (intermediate value). Here is the method: as §1, §2, §3, §4, §5

Consider two compounds from paper PMC8584931 (International Journal of Molecular Sciences, 2021).

Turning to `CC(=O)O[C@H]1C(=O)[C@@]2(C)[C@H]([C@H](OC(=O)c3ccccc3)[C@]3(O)C[C@H](OC(=O)[C@H](O)[C@@H](NC(=O)c4ccccc4)c4ccccc4)C(C)=C1C3(C)C)[C@]1(OC(C)=O)CO[C@@H]1C[C@@H]2O` [PTX, paclitaxel], the IC50 in the assay on PC-3 cells is 10 nM.
In the case of `O=c1[nH]cc(F)c(=O)[nH]1` [5-FU, 5-fluorouracil], the IC50 with HT-29 cells stood at 2580 nM.
